Patent US11661431B2, “Thienopyrrole compounds” (Gilead Sciences, Inc., priority 2021, dated 2023)

What was measured:
TLR7 = TLR7 (Homo sapiens (Human), UniProt Q9NYK1); test: TLR7 human peripheral blood mononuclear cell (PBMC) cell-based assay (GS-986 as agonist; IL-6 and IFNα readout); settings: human PBMCs, TLR7 agonist GS-986 at 400 nM, 6 hours, antagonist potency; read-out: TLR-7 EC50
Procedure, shortened: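 Human PBMCs (100,000 cells/well) preincubated 1 h at 37 °C with antagonist in 10-point dose response, then stimulated with TLR7 agonist for a further 6 h at 37 °C, 5% CO2. Supernatant IL-6 and IFNα measured by electrochemiluminescence immunoassay.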

TLR8 = TLR8 (Homo sapiens (Human), UniProt Q9NR97); test: TLR8 human peripheral blood mononuclear cell (PBMC) cell-based assay (Compound A as agonist; TNFα and IL12p40 readout); settings: human PBMCs, TLR8 agonist Compound A at 800 nM, 6 hours, antagonist potency; read-out: TLR-8 EC50
Chain of TLR8 (Q9NR97 27-1041): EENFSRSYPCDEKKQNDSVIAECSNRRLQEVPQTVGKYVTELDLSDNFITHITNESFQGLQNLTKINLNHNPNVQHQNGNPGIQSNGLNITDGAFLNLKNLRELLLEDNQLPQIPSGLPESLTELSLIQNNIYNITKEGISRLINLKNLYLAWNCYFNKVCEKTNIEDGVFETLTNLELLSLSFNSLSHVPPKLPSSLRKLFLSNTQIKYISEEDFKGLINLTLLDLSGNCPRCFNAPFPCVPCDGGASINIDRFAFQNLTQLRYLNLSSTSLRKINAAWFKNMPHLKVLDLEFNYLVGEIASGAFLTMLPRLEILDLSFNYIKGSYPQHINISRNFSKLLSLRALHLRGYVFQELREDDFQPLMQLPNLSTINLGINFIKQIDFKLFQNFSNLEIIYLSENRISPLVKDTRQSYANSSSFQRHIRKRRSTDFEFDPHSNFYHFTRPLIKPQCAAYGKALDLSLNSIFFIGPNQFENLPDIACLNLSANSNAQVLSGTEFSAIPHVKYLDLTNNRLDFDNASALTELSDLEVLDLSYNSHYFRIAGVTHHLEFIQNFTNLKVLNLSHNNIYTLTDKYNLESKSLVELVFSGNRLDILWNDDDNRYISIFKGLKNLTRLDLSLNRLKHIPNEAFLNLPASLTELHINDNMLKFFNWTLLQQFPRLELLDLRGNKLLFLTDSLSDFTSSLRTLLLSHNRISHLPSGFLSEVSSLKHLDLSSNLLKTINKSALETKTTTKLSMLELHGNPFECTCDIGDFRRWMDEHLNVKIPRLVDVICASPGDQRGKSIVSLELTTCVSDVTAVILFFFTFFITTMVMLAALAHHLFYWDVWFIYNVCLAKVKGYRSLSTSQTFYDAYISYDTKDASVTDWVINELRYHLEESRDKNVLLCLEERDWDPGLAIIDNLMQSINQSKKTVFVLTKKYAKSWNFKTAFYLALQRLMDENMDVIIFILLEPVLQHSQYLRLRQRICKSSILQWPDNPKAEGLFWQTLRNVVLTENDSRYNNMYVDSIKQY

Chain of TLR7 (Q9NYK1 27-1049): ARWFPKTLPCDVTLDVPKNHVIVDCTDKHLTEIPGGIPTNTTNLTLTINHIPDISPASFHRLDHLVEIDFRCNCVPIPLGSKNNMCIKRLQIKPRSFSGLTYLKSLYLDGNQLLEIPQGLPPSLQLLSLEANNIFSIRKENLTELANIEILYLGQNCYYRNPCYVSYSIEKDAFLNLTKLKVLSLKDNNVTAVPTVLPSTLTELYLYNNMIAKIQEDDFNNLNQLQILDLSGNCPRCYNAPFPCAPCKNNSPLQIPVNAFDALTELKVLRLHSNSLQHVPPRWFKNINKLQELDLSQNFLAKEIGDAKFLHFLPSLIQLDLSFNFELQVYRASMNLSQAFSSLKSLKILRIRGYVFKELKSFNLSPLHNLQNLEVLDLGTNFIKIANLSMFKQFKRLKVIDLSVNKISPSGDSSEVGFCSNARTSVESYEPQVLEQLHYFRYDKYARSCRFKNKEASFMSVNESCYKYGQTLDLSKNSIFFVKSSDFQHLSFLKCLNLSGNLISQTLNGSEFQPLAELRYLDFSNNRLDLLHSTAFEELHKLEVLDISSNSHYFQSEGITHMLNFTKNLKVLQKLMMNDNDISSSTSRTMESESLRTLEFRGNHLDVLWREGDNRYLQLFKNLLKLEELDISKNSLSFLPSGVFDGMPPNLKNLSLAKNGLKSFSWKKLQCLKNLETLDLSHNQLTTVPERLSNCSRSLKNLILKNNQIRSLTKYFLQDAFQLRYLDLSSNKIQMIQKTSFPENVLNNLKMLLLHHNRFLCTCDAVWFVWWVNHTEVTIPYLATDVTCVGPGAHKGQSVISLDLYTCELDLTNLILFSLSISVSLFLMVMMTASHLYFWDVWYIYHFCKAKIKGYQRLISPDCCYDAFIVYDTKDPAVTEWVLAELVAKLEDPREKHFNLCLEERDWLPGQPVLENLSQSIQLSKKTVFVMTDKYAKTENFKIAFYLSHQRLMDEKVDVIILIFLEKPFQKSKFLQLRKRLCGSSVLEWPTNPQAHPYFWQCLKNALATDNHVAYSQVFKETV

| SMILES | EC50 (TLR7) [nM] | EC50 (TLR8) [nM] |
| --- | --- | --- |
| Cc1c(-c2[nH]c3sc(C4CC(C(=O)N5CCNCC5)C4)c(C)c3c2C(C)C)cn2ncnc2c1C (single isomer, unassigned) [Example 239, (3-(5-(7,8-dimethyl-[1,2,4]triazolo[1,5-a]pyridin-6-yl)-4-isopropyl-3-methyl-6H-thieno[2,3-b]pyrrol-2-yl)cyclobutyl)(piperazin-1-yl)methanone] | < 0.05 | 1.5 |
| Cc1c(-c2[nH]c3sc([C@H]4C[C@@H]5C[C@H]4CN5)c(C)c3c2C(C)C)cn2ncnc2c1C [Example 275, 2-((1S,4R,5S)-2-azabicyclo[2.2.1]heptan-5-yl)-5-(7,8-dimethyl-[1,2,4]triazolo[1,5-a]pyridin-6-yl)-4-isopropyl-3-methyl-6H-thieno[2,3-b]pyrrole] | 0.4 | 2.91 |
| Cc1c(C2CCC3(CCNCC3)C2)sc2[nH]c(-c3cc(C)c4ncnn4c3)c(C(C)C)c12 (stereo not drawn) [Example 129] | 0.27 | 10.7 |
| Cc1c(-c2[nH]c3sc(C4CCN(C(=O)[C@H]5CO[C@H](C)CN5)CC4)c(C)c3c2C(C)C)cn2ncnc2c1C [Example 279, [4-[5-(7,8-dimethyl-[1,2,4]triazolo[1,5-a]pyridin-6-yl)-4-isopropyl-3-methyl-6H-thieno[2,3-b]pyrrol-2-yl]-1-piperidyl]-[(3R,6R)-6-methylmorpholin-3-yl]methanone] | 0.54 | 13.6 |
| Cc1c(C2CCN(C(=O)C3(C)COCCN3)CC2)sc2[nH]c(-c3cc(C)c4ncnn4c3)c(C(C)C)c12 (stereo not drawn) [Example 51] | 0.43 | 19.3 |
| Cc1noc(C)c1CN1C[C@@H]2C[C@H]1C[C@H]2c1sc2[nH]c(-c3cn4ncnc4c(C)c3C)c(C(C)C)c2c1C [Example 120] | 0.09 | 1.1 |
| Cc1c(-c2[nH]c3sc(C4C[C@@H]5C[C@H]4CC5N4CCNC(=O)C4)c(C)c3c2C(C)C)cn2ncnc2c1C (stereo partly drawn) [Example 257] | 1.29 | 7.58 |
| Cc1c(C2CCNCC2)sc2[nH]c(-c3ccc(C#N)c4nccnc34)c(C(C)C)c12 [Example 248] | 11.5 | 106 |
| Cc1c(-c2[nH]c3sc([C@@H]4C[C@@H]5C[C@H]4CN5CC(=O)N[C@H]4C[C@@H](O)C4)c(C)c3c2C(C)C)cn2ncnc2c1C [Example 269] | 0.3 | 0.28 |
| Cc1c(C2CCN(C(=O)[C@H]3CCCN3)CC2)sc2[nH]c(-c3cc(C)c4ncnn4c3)c(C(C)C)c12 [Example 15] | 0.12 | 13.4 |
| Cc1c(C2CCC3(CC2)CN(C(=O)[C@H]2CCCN2)C3)sc2[nH]c(-c3cc(C)c4ncnn4c3)c(C(C)C)c12 [Example 38] | 0.22 | 10.4 |
| Cc1c(-c2[nH]c3sc(C4CCC45CNC5)c(C)c3c2C(C)C)cn2ncnc2c1C (stereo not drawn) [Example 228, 5-(7,8-dimethyl-[1,2,4]triazolo[1,5-a]pyridin-6-yl)-4-isopropyl-3-methyl-2-(2-azaspiro[3.3]heptan-5-yl)-6H-thieno[2,3-b]pyrrole] | 8.77 | 76.2 |
| Cc1c(-c2[nH]c3sc([C@@H]4C[C@@H]5C[C@H]4CN5C(=O)[C@H]4COCCN4)c(C)c3c2C(C)C)cn2ncnc2c1C [Example 146] | 0.9 | 12.8 |
| Cc1c(-c2[nH]c3sc(C4C[C@@H]5C[C@H]4CC5N4CCS(=O)(=O)CC4)c(C)c3c2C(C)C)cn2ncnc2c1C (stereo partly drawn) [Example 256] | 2.31 | 29.2 |
| Cc1c(-c2[nH]c3sc([C@@H]4C[C@@H]5C[C@H]4CN5CC#N)c(C)c3c2C(C)C)cn2ncnc2c1C [Example 165] | 0.13 | 0.41 |
| Cc1c(-c2[nH]c3sc([C@@H]4C[C@@H]5C[C@H]4CN5C(=O)[C@@H]4C[C@H](F)CN4)c(C)c3c2C(C)C)cn2ncnc2c1C [Example 149] | 0.72 | 9.53 |
| Cc1c(C23CNCC2C3)sc2[nH]c(-c3cc(C)c4ncnn4c3)c(C(C)C)c12 (stereo not drawn) [Example 193] | 0.2 | 2.87 |
| Cc1c(-c2[nH]c3sc([C@@H]4C[C@@H]5C[C@H]4CN5CCS(=O)(=O)CCO)c(C)c3c2C(C)C)cn2ncnc2c1C [Example 307, 2-((2-((1S,4R,5R)-5-(5-(7,8-dimethyl-[1,2,4]triazolo[1,5-a]pyridin-6-yl)-4 isopropyl-3-methyl-6H-thieno[2,3-b]pyrrol-2-yl)-2-azabicyclo[2.2.1]heptan-2-yl)ethyl)sulfonyl)ethan-1-ol] | 0.21 | 0.25 |
| Cc1c(C2CCN(C(=O)C3CNC3)CC2)sc2[nH]c(-c3cc(C)c4ncnn4c3)c(C(C)C)c12 [Example 16] | 1.63 | 46.1 |
| Cc1c(C2CC3CCC(C2)N3CC(N)=O)sc2[nH]c(-c3cc(C)c4ncnn4c3)c(C(C)C)c12 (stereo not drawn) [Example 62, 2-(3-(4-isopropyl-3-methyl-5-(8-methyl-[1,2,4]triazolo[1,5-a]pyridin-6-yl)-6H-thieno[2,3-b]pyrrol-2-yl)-8-azabicyclo[3.2.1]octan-8-yl)acetamide] | 0.19 | 7.17 |
| Cc1cc2ncnn2cc1-c1[nH]c2sc(C3CCN(CC(N)=O)CC3)c(C)c2c1C(C)C [Example 235] | 10.1 | 48.8 |

| SMILES | EC50 (TLR7) [nM] | EC50 (TLR8) [nM] |
| --- | --- | --- |
| Cc1c(-c2[nH]c3sc(C4CCC45CN(CC(N)=O)C5)c(C)c3c2C(C)C)cn2ncnc2c1C (single isomer, unassigned) [Example 315, 2-(5-(5-(7,8-dimethyl-[1,2,4]triazolo[1,5-a]pyridin-6-yl)-4 isopropyl-3-methyl-6H-thieno[2,3-b]pyrrol-2-yl)-2-azaspiro[3.3]heptan-2-yl)acetamide] | 28.2 | 32.4 |
| Cc1c(-c2[nH]c3sc([C@@H]4C[C@@H]5C[C@H]4CN5CC(=O)OC(C)(C)C)c(C)c3c2C(C)C)cn2ncnc2c1C [Example 179, tert-butyl 2-((1S,4R,5R)-5-(5-(7,8-dimethyl-[1,2,4]triazolo[1,5-a]pyridin-6-yl)-4-isopropyl-3-methyl-6H-thieno[2,3-b]pyrrol-2-yl)-2-azabicyclo[2.2.1]heptan-2-yl)acetate] | 1.71 | 3.53 |
| Cc1c(C2CCN(C(=O)[C@@H]3CNCCO3)CC2)sc2[nH]c(-c3cc(C)c4ncnn4c3)c(C(C)C)c12 [Example 47] | 0.24 | 14.1 |
| Cc1c(-c2[nH]c3sc(C4CCN(C(=O)C5COC(C(F)(F)F)CN5)CC4)c(C)c3c2C(C)C)cn2ncnc2c1C (stereo not drawn) [Example 283] | 2.65 | 139 |
| Cc1c(-c2[nH]c3sc([C@@H]4C[C@@H]5C[C@H]4CN5Cc4ccc[nH]c4=O)c(C)c3c2C(C)C)cn2ncnc2c1C [Example 171] | < 0.05 | 0.06 |
| Cc1c(CCC2CCN(CC(N)=O)CC2)sc2[nH]c(-c3cc(C)c4ncnn4c3)c(C(C)C)c12 [Example 203] | 4.2 | 6.23 |
| Cc1c(C23CCNCC2C3)sc2[nH]c(-c3cc(C)c4ncnn4c3)c(C(C)C)c12 (stereo not drawn) [Example 195] | 0.05 | 2.12 |
| Cc1cc(-c2[nH]c3sc(C(=O)N(C)C4CCN(CCO)CC4)cc3c2C(C)C)cn2ncnc12 [Example 5] | 0.5 | 5.96 |
| Cc1cc(-c2[nH]c3sc([C@H]4C[C@@]5(CCCN(CC(N)=O)C5)C4)c(C)c3c2C(C)C)cn2ncnc12 [Example 141] | 0.42 | 10.6 |
| Cc1c(-c2cnc3c(c2)CNCC3)sc2[nH]c(-c3cc(C)c4ncnn4c3)c(C(C)C)c12 [Example 21] | 1.08 | 1.25 |
| Cc1c(-c2[nH]c3sc([C@@H]4C[C@@H]5C[C@H]4CN5CC(=O)N(C)C)c(C)c3c2C(C)C)cn2ncnc2c1C [Example 163] | 0.3 | 0.38 |
| Cc1c(C2CCN(C(=O)CN3CCCC3)CC2)sc2[nH]c(-c3cc(C)c4ncnn4c3)c(C(C)C)c12 [Example 34] | 0.06 | 4.45 |
| Cc1cc(-c2[nH]c3sc(C4CCN(C(=O)[C@H]5COCCN5)CC4)c(CO)c3c2C(C)C)cn2ncnc12 [Example 260, (R)-(4-(3-(hydroxymethyl)-4-isopropyl-5-(8-methyl-[1,2,4]triazolo[1,5-a]pyridin-6-yl)-6H-thieno[2,3-b]pyrrol-2-yl)piperidin-1-yl)(morpholin-3-yl)methanone] | 0.31 | 27.3 |
| Cc1c(-c2[nH]c3sc(C4CC(c5nnc([C@H]6COCCN6)o5)C4)c(C)c3c2C(C)C)cn2ncnc2c1C (single isomer, unassigned) [Example 241] | 3.51 | 30.7 |
| Cc1c(-c2[nH]c3sc([C@@H]4C[C@@H]5C[C@H]4CN5Cc4cccc(=O)[nH]4)c(C)c3c2C(C)C)cn2ncnc2c1C [Example 170] | < 0.05 | 0.26 |
| Cc1cc(-c2[nH]c3sc([C@H]4C[C@]5(CCCN(CC(N)=O)C5)C4)c(C)c3c2C(C)C)cn2ncnc12 [Example 142] | 2.31 | 7.47 |
| Cc1c(-c2[nH]c3sc(C45CCN(CC(N)=O)CC4C5)c(C)c3c2C(C)C)cn2ncnc2c1C (single isomer, unassigned) [Example 102, 2-[6-[5-(7,8-dimethyl-[1,2,4]triazolo[1,5-a]pyridin-6-yl)-4-isopropyl-3-methyl-6H-thieno[2,3-b]pyrrol-2-yl]-3-azabicyclo[4.1.0]heptan-3-yl]acetamide] | 0.09 | 23.1 |
| Cc1c(C2CC3(CCNCC3)C2)sc2[nH]c(-c3cc(C)c4ncnn4c3)c(C(C)C)c12 [Example 123] | 0.16 | 2.15 |
| Cc1c(C23CNCC2C3(F)F)sc2[nH]c(-c3cc(C)c4ncnn4c3)c(C(C)C)c12 (stereo not drawn) [Example 198] | 5.06 | 13.8 |
| Cc1cc(-c2[nH]c3sc(C4CCNCC4)c(C)c3c2C(C)C)cn(C)c1=O [Example 250] | 0.34 | 3.59 |
| Cc1c(-c2[nH]c3sc([C@@H]4C[C@@H]5C[C@H]4CN5CCC#N)c(C)c3c2C(C)C)cn2ncnc2c1C [Example 166] | 1.2 | 0.48 |
